One test addresses BRD4_BD1 bromodomain (Homo sapiens (Human), UniProt O60885). Put plainly: BRD4 BD1 biochemical binding assay (TR-FRET). Particulars: displacement of biotinylated ligand Compound C. The protocol:
(§1) The following assay was used to measure the IC50 for the test compounds ability to bind to the BRD4_BD1 and BRD4_BD2 bromodomains.
(§2) DMSO was backfilled to a final volume of 30 nL as required. […] 1× Assay Buffer was dispensed (5 μL per well) into Minimum Signal control wells. 5 μL of Solution A-3× was dispensed into test wells and Maximum Signal control wells (containing DMSO instead of test compound). Samples were incubated 10 minutes at room temperature. 5 μL of Solution B-3x was dispensed into all wells. Samples were incubated incubate for 10 minutes at room temperature. 5 μL of Solution C-3x was dispensed into all wells. Samples were incubated 40 minutes at room temperature. Plates were read using an Envision (Perkin Elmer) with the following settings: Detection—LANCE Dual Laser 50/200. […] Percentage inhibition was calculated relative to the Minimum Signal control and Maximum Signal control wells. IC50 values were derived by four parameter curve fitting using the Robust method.
Background: TR-FRET usually uses a lanthanide donor and a delayed reading to cut background.

Another test has as its target BRD4_BD2 bromodomain (Homo sapiens (Human), UniProt O60885). Put plainly: BRD4 BD2 biochemical binding assay (TR-FRET). As to conditions: displacement of biotinylated ligand Compound C. The protocol: as §1, §2
Test [1] deals with T1, BRD4 (Homo sapiens (Human), UniProt O60885). Put plainly: BRD4 degradation assay in PC3-Steap1 cells. As to conditions: for Dmax: complete loss = −100%, read-out: Sinf (maximum degradation, percent change in protein level). It counts as cell-based. As for the experimental part: 2 μL of each sample from the serial dilution was transferred to 98 μL of assay media as an intermediate dilution. 5 μL of intermediate dilution was added to 45 μL of cell plate. Columns 1, 2, 23 and 24 were treated with only 0.2% w/v final concentration of DMSO for data normalization as “neutral controls”. After compound treatment, cell plates were stored in a 37° C. incubator for 4 hours.
Cell plate was incubated at room temperature for 20 minutes. Well contents were aspirated and washed with 100 μL/well PBS 3 times. 50 μL/well of PBS containing 0.5% w/v bovine serum albumen, 0.5% w/v Triton X-100 (Antibody Dilution Buffer) was added to each well. Samples were incubated for 30 minutes. Well contents were aspirated and washed 3 times with 100 μL/well of PBS. PBS was aspirated from the wells.
25 μL per well of BRD4 antibody diluted in buffer was added and incubated overnight at 4° C. On day-3 samples were washed 3 times with 100 μL/well of PBS. […] Samples were incubated for 2 hours at room temperature. Samples were washed 3 times with 100 μL PBS.
(§3) Quantitative fluorescence imaging of BRD4 was carried out using an Opera Phenix High-Content Screening System. […] Hoechst channel was used to identify nuclear region. […] Data analysis was carried out using Genedata Screener, with DMSO and no primary antibody control treated samples being used to define the 0% and 100% changes in BRD4. The dose-response log(inhibitor) vs. response was used to define the inflexion point of curve (IC50) and the plateau of the maximal effect. The Sit value reports degradation as percent change in protein level, so complete loss of the protein target is −100%. Sinf is the maximum degradation achieved, obtained by determining the bottom of a dose-response (where the S-shaped curve levels out).

Test [2] concerns the target T1, BRD4. Put plainly: BRD4 degradation assay in EoL-1 cells. It counts as cell-based. As for the experimental part: 2 μL of each sample from the serial dilution was transferred to 98 μL of assay media as an intermediate dilution. 5 μL of each well of the intermediate dilution was added to 45 μL of cell plate. Columns 1, 2, 23 and 24 were treated with only 0.2% final concentration of DMSO for data normalization as “neutral controls”. After compound treatment, cell plates were stored in a 37° C. incubator for 4 hours.
The cell plate was incubated at room temperature for 20 minutes. Well contents were aspirated and washed with 100 μL/well PBS 3 times. 50 μL/well of PBS (pH7.5) containing 0.5% w/v bovine serum albumen, 0.5% w/v Triton X-100 (Block/Permeabilzation Buffer) was added to each well. Samples were incubated for 20 minutes. Well contents were aspirated and washed 3 times with 100 μL/well of PBS. PBS was aspirated from the well and 50 μL per well of EoL-1 Block Buffer (PBS containing 10% Normal Goat Serum (Abcam #ab7481)) was added to each well. Plates were incubated at room temperature for 30 minutes. Block buffer was decanted from the wells.
25 μL per well of BRD4 antibody diluted in buffer was added and incubated overnight at 4° C. On day-2 samples were washed 3 times with 100 μL/well of PBS. […] Samples were incubated for 2 hours at room temperature. Samples were washed 3 times with 100 μL PBS.
as §3, with “Sinf” for “Sit”

A further test relates to MYC expression. Put plainly: Myc mRNA assay in MV-4-11 cells. The test is classed as cell-based. Particulars: for Maximum Inhibition (%) (mean) of MYC expression: 4 hours, QuantiGene 2.0; for IC50: Homo sapiens, MV4-11, 4 hours, QuantiGene 2.0, read-out: Inhibition of MYC expression Average IC50. The protocol: Pharmacologic inhibition of MYC is achievable through targeting BET bromodomains through small molecule binder or degrader mechanisms.
Test compounds diluted in DMSO were transferred to the cell plates, keeping final DMSO concentration consistent at 0.1%, and incubated for 4 hours at 37° C. […] Luminescence was read using an EnVision plate reader (PerkinElmer) and IC50s generated in Genedata Screener using a 4-parameter non-linear regression fit.

[3] abbreviates: 4 hours, immunofluorescence, read-out: Degradation of BRD4 Average EC50.
[4] abbreviates: read-out: Degradation of BRD4 Average EC50, 4 hours, immunofluorescence.

The structures appear in SMILES notation. Some results are limits rather than exact numbers.

A word on the IC50: it is the point on the concentration scale where inhibition reaches its midpoint. As to `Cc1sc2c(c1C)C(c1ccc(C#CCN)cc1)=N[C@H](CC(=O)OC(C)(C)C)c1nnc(C)n1-2` [Compound 1b, tert-butyl (R)-2-(4-(4-(3-aminoprop-1-yn-1-yl)phenyl)-2,3,9-trimethyl-6H-thieno[3,2-f][1,2,4]triazolo[4,3-a][1,4]diazepin-6-yl)acetate], the figures for the IC50 on BRD4_BD1 bromodomain, at BRD4_BD2 bromodomain and in the test with MYC expression were 199 nM, 272 nM and 67.5 nM, respectively. Moreover, the Dmax on BRD4 [1] (4 hours) was -74.5%; on BRD4 [2] (EOL1, 4 hours, complete loss = −100%, read-out: Sinf (maximum degradation, percent change in protein level)), -87%. Moreover, the values for the DC50 at BRD4 [1] (setting [3]) and at BRD4 [2] (setting [3]) were 0.0105 µM and 0.009 µM, respectively. In the test with MYC expression, the “Maximum Inhibition (%) (mean) of MYC expression” value (“Maximum Inhibition (%) (mean)” below) turned out to be 86.6%.
With `CNCC#Cc1ccc(C2=N[C@@H](CC(=O)OC(C)(C)C)c3nnc(C)n3-c3sc(C)c(C)c32)cc1` [Compound 2a, tert-butyl (S)-2-(2,3,9-trimethyl-4-(4-(3-(methylamino)prop-1-yn-1-yl)phenyl)-6H-thieno[3,2-f][1,2,4]triazolo[4,3-a][1,4]diazepin-6-yl)acetate], the concentration for half-maximal inhibition (IC50) on BRD4_BD1 bromodomain came to 14.4 nM; at BRD4_BD2 bromodomain, 17.1 nM; in the test with MYC expression, 11.1 nM. Besides, the Dmax on BRD4 [1] (4 hours) was -21.8%. Also, the DC50 at BRD4 [1] (setting [3]) and on BRD4 [2] (setting [3]) was above 20 µM throughout. Further, the “Maximum Inhibition (%) (mean)” value in the test on MYC expression is 77.9%.
For the compound `Cc1sc2c(c1C)C(c1ccc(C#CCN(C)C)cc1)=N[C@@H](CC(=O)OC(C)(C)C)c1nnc(C)n1-2` [Compound 3a, tert-butyl (S)-2-(4-(4-(3-(dimethylamino)prop-1-yn-1-yl)phenyl)-2,3,9-trimethyl-6H-thieno[3,2-f][1,2,4]triazolo[4,3-a][1,4]diazepin-6-yl)acetate], the IC50 at BRD4_BD1 bromodomain is 14.5 nM; at BRD4_BD2 bromodomain it was 20.7 nM; in the test with MYC expression, 11.7 nM. The Dmax on BRD4 [1] (4 hours) is -41.9%. For the same compound, the DC50 at BRD4 [1] (setting [3]) and at BRD4 [2] (setting [3]) was above 20 µM each time. The “Maximum Inhibition (%) (mean)” value with MYC expression was 78.7%.
In the case of `CC(=O)NCC#Cc1ccc(C2=N[C@@H](CC(=O)OC(C)(C)C)c3nnc(C)n3-c3sc(C)c(C)c32)cc1` [Compound 10a, tert-butyl (S)-2-(4-(4-(3-acetamidoprop-1-yn-1-yl)phenyl)-2,3,9-trimethyl-6H-thieno[3,2-f][1,2,4]triazolo[4,3-a][1,4]diazepin-6-yl)acetate], the IC50 was determined as 6.6 nM at BRD4_BD1 bromodomain, 10.7 nM at BRD4_BD2 bromodomain and 7.1 nM with MYC expression. Besides, the DC50 on BRD4 [1] (setting [3]) and at BRD4 [2] (setting [3]) was above 20 µM throughout. Besides, the “Maximum Inhibition (%) (mean)” value with MYC expression was found to be 79.3%.
With `CCC#Cc1ccc(C2=N[C@@H](CC(=O)OC(C)(C)C)c3nnc(C)n3-c3sc(C)c(C)c32)cc1` [Compound 13a, tert-butyl (S)-2-(4-(4-(but-1-yn-1-yl)phenyl)-2,3,9-trimethyl-6H-thieno[3,2-f][1,2,4]triazolo[4,3-a][1,4]diazepin-6-yl)acetate], the values for the half-maximal inhibitory concentration (IC50) on BRD4_BD1 bromodomain, at BRD4_BD2 bromodomain and with MYC expression were 23.4 nM, 28.7 nM and 162 nM, respectively. The DC50 on BRD4 [1] (setting [4]) and at BRD4 [2] (setting [4]) was above 20 µM in each case. For the same compound, the “Maximum Inhibition (%) (mean)” value with MYC expression stood at 71.6%.
Consider `CC#Cc1ccc(C2=N[C@@H](CC(=O)OC(C)(C)C)c3nnc(C)n3-c3sc(C)c(C)c32)cc1` [Compound 14a, tert-butyl (S)-2-(2,3,9-trimethyl-4-(4-(prop-1-yn-1-yl)phenyl)-6H-thieno[3,2-f][1,2,4]triazolo[4,3-a][1,4]diazepin-6-yl)acetate], for which the IC50 on BRD4_BD1 bromodomain stood at 18.8 nM; at BRD4_BD2 bromodomain, 20.3 nM; with MYC expression it was 97.2 nM. Besides, the DC50 at BRD4 [1] (setting [4]) and at BRD4 [2] (setting [4]) was above 20 µM throughout. In addition, the “Maximum Inhibition (%) (mean)” value in the test on MYC expression was found to be 73.6%.

(Values after patent US20250084096A1, “TERT-BUTYL (S)-2-(4-(PHENYL)-6H-THIENO[3, 2-F][1, 2, 4]TRIAZOLO[4, 3-A] [1,4]DIAZEPIN-6-YL) ACETATE DERIVATIVES AND RELATED COMPOUNDS AS BROMODOMAIN BRD4 INHIBITORS FOR TREATING CANCER” (Genentech, Inc., priority 2018, published 2025).)
